Measured values: patent US20060079503A1, “Thiazolidinones and the use therof as polo-like kinase inhibitors” (SCHERING AKTIENGESELLSCHAFT, priority 2002, published 2006)

molecular target: T1, Recombinant human Plk-1 (6×His) (Homo sapiens, UniProt P53350); test: PLK enzyme assay (33P-γ-ATP incorporation into biotinylated casein, SPA beads); assay type: biochemical; conditions: 10 ng PLK enzyme, 90 minutes at room temperature, 0.5 μmol of ATP, casein substrate; read-out: Inhibition of PLK-1 IC50
T1 construct: 6×His; made in house; host or cells: baculovirus-infected insect cells (Hi5)
Procedure: Recombinant human Plk-1 (6×His) was purified from baculovirus-infected insect cells (Hi5).
10 ng of (produced in a recombinant manner and purified) PLK enzyme is incubated for 90 minutes at room temperature with biotinylated casein and 33P-γ-ATP as a substrate in a volume of 15 μl in 384-well Greiner small-volume microtiter plates (final concentrations in the buffer: 660 ng/ml of PLK; 0.7 μmol of casein, 0.5 μmol of ATP incl. 400 nCi/ml of 33P-γ-ATP; 10 mmol of MgCl2, 1 mmol of MnCl2; 0.01% NP40; 1 mmol of DTT, protease inhibitors; 0.1 mmol of Na2VO3 in 50 mmol of HEPES, pH 7.5). To complete the reaction, 5 μl of stop solution (500 μmol of ATP; 500 mmol of EDTA; 1% Triton X100; 100 mg/ml of streptavidin-coated SPA beads in PBS) is added. After the microtiter plate is sealed by film, the beads are sedimented by centrifuging (10 minutes, 1500 rpm). The incorporation of 33P-γ-ATP in casein is intended as a measurement of enzyme activity by β-counting.
Test substances are used in various concentrations (0 μmol, as well as in the range of 0.01-30 μmol). The final concentration of the solvent dimethyl sulfoxide is 1.5% in all batches.

T1 sequence (P53350 whole entry): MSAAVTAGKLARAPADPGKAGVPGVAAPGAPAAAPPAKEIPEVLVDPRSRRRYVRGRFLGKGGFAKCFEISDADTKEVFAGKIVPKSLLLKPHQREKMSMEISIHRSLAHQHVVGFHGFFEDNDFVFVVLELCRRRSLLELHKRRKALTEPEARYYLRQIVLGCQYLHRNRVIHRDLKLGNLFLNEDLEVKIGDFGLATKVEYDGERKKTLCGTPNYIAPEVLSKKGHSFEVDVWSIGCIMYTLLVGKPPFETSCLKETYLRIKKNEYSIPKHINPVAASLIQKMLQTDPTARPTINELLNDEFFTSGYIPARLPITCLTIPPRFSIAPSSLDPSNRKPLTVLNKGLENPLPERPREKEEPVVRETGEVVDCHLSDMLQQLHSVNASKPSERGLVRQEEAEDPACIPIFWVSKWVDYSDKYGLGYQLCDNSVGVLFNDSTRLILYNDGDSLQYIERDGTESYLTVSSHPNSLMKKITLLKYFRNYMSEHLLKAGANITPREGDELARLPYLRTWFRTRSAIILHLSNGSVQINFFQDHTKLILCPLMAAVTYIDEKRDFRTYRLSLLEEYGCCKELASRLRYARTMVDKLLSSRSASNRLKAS

| SMILES | IC50 [nM] |
| --- | --- |
| CCOC(=O)C(C#N)=c1sc(=CNc2ccc(C(N)=O)cc2)c(=O)n1CC (mixture of isomers) [Example 10, (E or Z)-{5-(E/Z)-[(4-Carbamoyl-phenylamino)-methylene]-3-ethyl-4-oxo-thiazolidin-2-ylidene}-cyanoacetic acid ethyl ester] | 200 |
| CCOC(=O)C(C#N)=c1sc(=CN)c(=O)n1CC (mixture of isomers) [Example 11, (E or Z)-(5-(E/Z)-Aminomethylene-3-ethyl-4-oxo-thiazolidin-2-ylidene)-cyanoacetic acid ethyl ester] | 400 |
| CCn1c(=C(C#N)C(=O)O)sc(=CNc2ccccc2)c1=O (mixture of isomers) [Example 12, (E or Z)-Cyano-(3-ethyl-4-oxo-5-(E/Z)-phenylaminomethylene-thiazolidin-2-ylidene)-acetic acid] | 100 |
| CCn1c(=CC#N)sc(=CNc2ccccc2)c1=O (mixture of isomers) [Example 21, (E or Z)-(3-Ethyl-4-oxo-5-(E/Z)-phenylaminomethylene-thiazolidin-2-ylidene)-acetonitrile] | 230 |
| CCOC(=O)C(C#N)=c1sc(=CNc2ccc(S(C)(=O)=O)cc2)c(=O)n1CC [Example 22] | 510 |
| CCOC(=O)C(C#N)=c1sc(=CNc2cccc(C(=O)O)c2)c(=O)n1CC [Example 24] | 230 |
| CCOC(=O)C(C#N)=c1sc(=CNc2ccccc2C(=O)O)c(=O)n1CC [Example 26] | 6300 |
| CCOC(=O)C(C#N)=c1sc(=CNc2cc(C(=O)O)ccc2O)c(=O)n1CC [Example 28] | 2300 |
| CCOC(=O)C(C#N)=c1sc(=CNc2ccc(C(=O)O)cc2O)c(=O)n1CC [Example 30] | 250 |
| CCOC(=O)C(C#N)=c1sc(=CNc2ccc(Cl)cc2C(=O)O)c(=O)n1CC [Example 31] | 1900 |
| CCOC(=O)C(C#N)=c1sc(=CNc2cc(Cl)ccc2C(=O)O)c(=O)n1CC [Example 32] | 1700 |
| CCOC(=O)C(C#N)=c1sc(=CNc2ccc(Cl)c(C(=O)O)c2)c(=O)n1CC [Example 33] | 420 |
| CCOC(=O)C(C#N)=c1sc(=CNc2ccc(F)cc2C(=O)O)c(=O)n1CC [Example 35] | 2800 |
| CCOC(=O)C(C#N)=c1sc(=CNc2ccc(Br)cc2C(=O)O)c(=O)n1CC [Example 36] | 1800 |
| CCOC(=O)C(C#N)=c1sc(=CNc2cc(F)c(F)cc2C(=O)O)c(=O)n1CC [Example 37] | 3500 |
| CCOC(=O)C(C#N)=c1sc(=CNc2ccc(C)cc2C(=O)O)c(=O)n1CC [Example 38] | 3000 |
| CCOC(=O)C(C#N)=c1sc(=CNc2cccc(C)c2C(=O)O)c(=O)n1CC [Example 39] | 5900 |
| CCOC(=O)C(C#N)=c1sc(=CNc2ccc(C(=O)O)cc2C)c(=O)n1CC [Example 40] | 1700 |

More lines, now with the values ahead:

| IC50 [nM] | SMILES |
| --- | --- |
| 680 | CCOC(=O)C(C#N)=c1sc(=CNC(=O)Nc2ccccc2)c(=O)n1CC [Example 45] |
| 270 | CCOC(=O)C(C#N)=c1sc(=CNc2cccc(C(N)=O)c2)c(=O)n1CC [Example 48] |
| 240 | CCOC(=O)C(C#N)=c1sc(=CNc2ccc(S(N)(=O)=O)cc2)c(=O)n1CC [Example 50] |
| 260 | CCOC(=O)C(C#N)=c1sc(=CNc2cccc(C(=O)NC)c2)c(=O)n1CC [Example 52] |
| 460 | CCOC(=O)C(C#N)=c1sc(=CNc2cccc(S(N)(=O)=O)c2)c(=O)n1CC [Example 53] |
| 270 | CCOC(=O)C(C#N)=c1sc(=CNc2ccc(NC(C)=O)cc2)c(=O)n1CC [Example 58] |
| 180 | CCOC(=O)C(C#N)=c1sc(=CNc2cccc(NC(C)=O)c2)c(=O)n1CC [Example 59] |
| 290 | CCOC(=O)C(C#N)=c1sc(=CNc2cccc(CO)c2)c(=O)n1CC [Example 60] |

tested on: human MaTu breast tumor cells; test: Proliferation assay (crystal violet staining); assay type: cell-based; conditions: 96 h, incubated for 4 days with test substances, read-out: Inhibition of the Tumor Cell Proliferation (MaTu) IC50
Procedure: Cultivated human MaTu breast tumor cells were flattened out at a density of 5000 cells/measuring point in a 96-well multititer plate in […] of the corresponding growth medium. After 24 hours, the cells of one plate (zero-point plate) were colored with crystal violet (see below), while the medium of the other plates was replaced by fresh culture medium […], to which the test substances were added in various concentrations (0 μm, as well as in the range of 0.01-30 μm; the final concentration of the solvent dimethyl sulfoxide was 0.5%). The cells were incubated for 4 days in the presence of test substances. The cell proliferation was determined by coloring the cells with crystal violet: the cells were fixed by adding 20 μl/measuring point of an 11% glutaric aldehyde solution for 15 minutes at room temperature. After three washing cycles of the fixed cells with water, the plates were dried at room temperature. The cells were colored by adding 100 μl/measuring point of a 0.1% crystal violet solution (pH was set at 3 by adding acetic acid). After three washing cycles of the colored cells with water, the plates were dried at room temperature. The dye was dissolved by adding 100 μl/measuring point of a 10% acetic acid solution. The extinction was determined by photometry at a wavelength of 595 nm. The change of cell growth, in percent, was calculated by standardization of the measured values to the extinction values of the zero-point plate (=0%) and the extinction of the untreated (0 μm) cells (=100%).

| IC50 [nM] | SMILES |
| --- | --- |
| 4000 | CCOC(=O)C(C#N)=c1sc(=CNc2ccc(C(N)=O)cc2)c(=O)n1CC (mixture of isomers) [Example 10, (E or Z)-{5-(E/Z)-[(4-Carbamoyl-phenylamino)-methylene]-3-ethyl-4-oxo-thiazolidin-2-ylidene}-cyanoacetic acid ethyl ester] |
| 15000 | CCOC(=O)C(C#N)=c1sc(=CN)c(=O)n1CC (mixture of isomers) [Example 11, (E or Z)-(5-(E/Z)-Aminomethylene-3-ethyl-4-oxo-thiazolidin-2-ylidene)-cyanoacetic acid ethyl ester] |
| 2000 | CCn1c(=C(C#N)C(=O)O)sc(=CNc2ccccc2)c1=O (mixture of isomers) [Example 12, (E or Z)-Cyano-(3-ethyl-4-oxo-5-(E/Z)-phenylaminomethylene-thiazolidin-2-ylidene)-acetic acid] |
